From patent publication US9585877B2, “Methods of maintaining, treating or improving cognitive function” (Forum Pharmaceuticals, Inc., priority 2012, dated 2017)

Key:
Type in all cases: in vivo, human
[1] = system: subjects with mild-to-moderate Alzheimer's disease; experiment: Clinical study, Clinical Dementia Rating-Sum of Boxes (CDR-SB)
Description: (§1) A double-blind study of 3 doses of the Test Composition or placebo in subjects with mild-to-moderate Alzheimer's disease, with or without receiving a concomitant AChEI for 24 weeks (168 days) after a 7 day placebo run-in period.
(§2) Total number of subjects in the safety population was 409 subjects that were dosed once-daily with a dosing-capsule for a period of 168 days. The subjects dosed, and the particular dosing, included: 104 subjects dosed with Placebo capsule; and 305 subjects dosed with Test Compound (104 subjects with 0.3 mg capsules; 101 subjects with 1 mg capsules; and 100 subjects with 2 mg capsules).
The population included generally healthy male or female subjects, aged 50 to ≦85 years, with mild-to-moderate Alzheimer's disease, consistent with criteria defined by a Work Group of the National Institute of Neurological and Communicative Disorders and Stroke—Alzheimer's Disease and Related Disorders Association, of mild to moderate severity, with a Mini-Mental State Examination score (MMSE) 14 and ≦24, and a Clinical Dementia Rating Scale Sum of the Boxes (CDR-SB) score of 2. […] Subjects were required to be either receiving a stable dose of an AChEI (donepezil or rivastigmine) for at least 3 months before screening or not presently being treated with an AChEI or mementine for at least 30 days.
(§3) Subjects with mild to moderate Alzheimer's disease receiving stable treatment with an AChEI (donepezil or rivastigmine: ‘add-on’ subjects) or not receiving an AChEI (de novo subjects′) received 0.3, 1, or 2 mg doses of Test Composition or placebo for up to 24 weeks (168 days) of double-blind treatment, after a 7-day single-blind, placebo run-in period to assess study drug compliance. A follow-up telephone contact was conducted approximately 15 days after the last dose of study drug for questions regarding safety.
Clinical Dementia Rating-Sum of Boxes CDR-SB
The CDR-SB test employed herein is based on the procedure developed by Hughs C D, Berg L, Danziger W L, Coben L A, and Martin R L. “A new clinical scale for the staging of dementia”; Br J Psychiatry. 1982; 140:566-572, and provides an assessment of six (6) dimensions: Memory, Orientation, Judgment and Problem Solving, Community Affairs, Home and Hobbies, and Personal Care.
Each of the six CDR dimensions are scored separately with well-defined anchors from 0 to 3.0 (no impairment to severe illness). The total sum of boxes ranges from 0 to 18. Higher totals indicate more severe impairment. A decrease from baseline indicates improvement.

[2] = system: subjects with mild-to-moderate Alzheimer's disease; experiment: Clinical study, Controlled Oral Word Association Test (COWAT); details: 2 mg dose versus Placebo
Description: as §1, §2
The population included generally healthy male or female subjects, aged 50 to ≦85 years, with mild-to-moderate Alzheimer's disease, consistent with criteria defined by a Work Group of the National Institute of Neurological and Communicative Disorders and Stroke—Alzheimer's Disease and Related Disorders Association, of mild to moderate severity, with a Mini-Mental State Examination score (MMSE) 14 and ≦24, and a Clinical Dementia Rating Scale Sum of the Boxes (CDR-SB) score of 2. […]
The COWAT test includes (1) asking the subject to name words beginning with a specific letter (e.g., F, A, S), (2) each of 3 trials is timed for 60 seconds, and (3) the score is calculated by the number of new words beginning with the assigned letter.

[3] = system: subjects with mild-to-moderate Alzheimer's disease; experiment: Clinical study, Cognition composite score
Description: as §1, §3
These analyses were prespecified in the analytical plan (ITT population), and included the following: Cognition composite score (ADAS-cog Word Recall, Word Recognition, & Orientation, and COWAT and CFT), Memory composite score (ADAS-cog Word Recall, Word Recognition, and Orientation), and Executive Function composite score (COWAT and CFT).
Composite Scores—Three composite scores were calculated: (1) Composite Cognition Score (ADAS-cog Word Recall, Word Recognition, and Orientation, COWAT and CFT); (2) Memory Composite Score (ADAS-cog Word Recall, Word Recognition, and Orientation); and (3) Executive Function Composite Score (COWAT and CFT).
The composite score is only computed when all test scores are available.

With `Cl.O.O=C(N[C@H]1CN2CCC1CC2)c1cc2cccc(Cl)c2s1` [Test Compound, (R)-7-chloro-N-(quinuclidin-3-yl)benzo[b]thiophene-2-carboxamide, hydrochloride, monohydrate] the “CDR-SB (Baseline was assigned the value of zero @ Week 0)” value ([1]; 0.3 mg daily dose, Week 4) was 0.0026, the “CDR-SB (Baseline was assigned the value of zero @ Week 0)” value ([1]; 0.3 mg daily dose, Week 12) was 0.0542 and the “CDR-SB (Baseline was assigned the value of zero @ Week 0)” value ([1]; 0.3 mg daily dose, Week 18) was 0.2325. The “CDR-SB (Baseline was assigned the value of zero @ Week 0)” value ([1]; 0.3 mg daily dose, Week 23) was 0.4427, the “CDR-SB (Baseline was assigned the value of zero @ Week 0)” value ([1]; 1 mg daily dose, Week 4) was −0.2365 and the “CDR-SB (Baseline was assigned the value of zero @ Week 0)” value ([1]; 1 mg daily dose, Week 12) was −0.0811. The “CDR-SB (Baseline was assigned the value of zero @ Week 0)” value ([1]; 1 mg daily dose, Week 18) was −0.0424, the “CDR-SB (Baseline was assigned the value of zero @ Week 0)” value ([1]; 1 mg daily dose, Week 23) was 0.1214 and the “CDR-SB (Baseline was assigned the value of zero @ Week 0)” value ([1]; 2 mg daily dose, Week 4) was −0.1361. For the same compound, the “CDR-SB (Baseline was assigned the value of zero @ Week 0)” value ([1]; 2 mg daily dose, Week 12) was −0.1352, the “CDR-SB (Baseline was assigned the value of zero @ Week 0)” value ([1]; 2 mg daily dose, Week 18) was −0.1368 and the “CDR-SB (Baseline was assigned the value of zero @ Week 0)” value ([1]; 2 mg daily dose, Week 23) was −0.088. For the same compound, the “CDR-SB Effect Size” value ([1]; 2 mg dose versus Placebo) was 0.31, the “CDR-SB (Baseline was assigned the value of zero @ Week 0)” value ([1]; Add-On patients (stable donepezil or rivastigmine), 0.3 mg daily dose, Week 4) was −0.2148 and the “CDR-SB (Baseline was assigned the value of zero @ Week 0)” value ([1]; Add-On patients (stable donepezil or rivastigmine), 0.3 mg daily dose, Week 12) was −0.1333. The “CDR-SB (Baseline was assigned the value of zero @ Week 0)” value ([1]; Add-On patients (stable donepezil or rivastigmine), 0.3 mg daily dose, Week 18) was 0.0576, the “CDR-SB (Baseline was assigned the value of zero @ Week 0)” value ([1]; Add-On patients (stable donepezil or rivastigmine), 0.3 mg daily dose, Week 23) was 0.4174 and the “CDR-SB (Baseline was assigned the value of zero @ Week 0)” value ([1]; Add-On patients (stable donepezil or rivastigmine), 1 mg daily dose, Week 4) was −0.2473. The “CDR-SB (Baseline was assigned the value of zero @ Week 0)” value ([1]; Add-On patients (stable donepezil or rivastigmine), 1 mg daily dose, Week 12) was 0.1511, the “CDR-SB (Baseline was assigned the value of zero @ Week 0)” value ([1]; Add-On patients (stable donepezil or rivastigmine), 1 mg daily dose, Week 18) was 0.2268 and the “CDR-SB (Baseline was assigned the value of zero @ Week 0)” value ([1]; Add-On patients (stable donepezil or rivastigmine), 1 mg daily dose, Week 23) was 0.476. For the same compound, the “CDR-SB (Baseline was assigned the value of zero @ Week 0)” value ([1]; Add-On patients (stable donepezil or rivastigmine), 2 mg daily dose, Week 4) was −0.236, the “CDR-SB (Baseline was assigned the value of zero @ Week 0)” value ([1]; Add-On patients (stable donepezil or rivastigmine), 2 mg daily dose, Week 12) was −0.2247 and the “CDR-SB (Baseline was assigned the value of zero @ Week 0)” value ([1]; Add-On patients (stable donepezil or rivastigmine), 2 mg daily dose, Week 18) was −0.1084. For the same compound, the “CDR-SB (Baseline was assigned the value of zero @ Week 0)” value ([1]; Add-On patients (stable donepezil or rivastigmine), 2 mg daily dose, Week 23) was −0.1633, the “CDR-SB (Baseline was assigned the value of zero @ Week 0)” value ([1]; de novo patients, 0.3 mg daily dose, Week 4) was 0.0816 and the “CDR-SB (Baseline was assigned the value of zero @ Week 0)” value ([1]; de novo patients, 0.3 mg daily dose, Week 12) was 0.1082. For the same compound, the “CDR-SB (Baseline was assigned the value of zero @ Week 0)” value ([1]; de novo patients, 0.3 mg daily dose, Week 18) was 0.27, the “CDR-SB (Baseline was assigned the value of zero @ Week 0)” value ([1]; de novo patients, 0.3 mg daily dose, Week 23) was 0.3392 and the “CDR-SB (Baseline was assigned the value of zero @ Week 0)” value ([1]; de novo patients, 1 mg daily dose, Week 4) was −0.3161. For the same compound, the “CDR-SB (Baseline was assigned the value of zero @ Week 0)” value ([1]; de novo patients, 1 mg daily dose, Week 12) was −0.3858, the “CDR-SB (Baseline was assigned the value of zero @ Week 0)” value ([1]; de novo patients, 1 mg daily dose, Week 18) was −0.3763 and the “CDR-SB (Baseline was assigned the value of zero @ Week 0)” value ([1]; de novo patients, 1 mg daily dose, Week 23) was −0.288. For the same compound, the “CDR-SB (Baseline was assigned the value of zero @ Week 0)” value ([1]; de novo patients, 2 mg daily dose, Week 4) was −0.133, the “CDR-SB (Baseline was assigned the value of zero @ Week 0)” value ([1]; de novo patients, 2 mg daily dose, Week 12) was −0.1475 and the “CDR-SB (Baseline was assigned the value of zero @ Week 0)” value ([1]; de novo patients, 2 mg daily dose, Week 18) was −0.2625. For the same compound, the “CDR-SB (Baseline was assigned the value of zero @ Week 0)” value ([1]; de novo patients, 2 mg daily dose, Week 23) was −0.1239, the “COWAT Effect Size” value [2] was 0.35 and the “Cognition Composite Score (Baseline was assigned the value of zero @ Week 0)” value ([3]; 0.3 mg daily dose, Week 4) was 0.0036. For the same compound, the “Cognition Composite Score (Baseline was assigned the value of zero @ Week 0)” value ([3]; 0.3 mg daily dose, Week 12) was 0.0171, the “Cognition Composite Score (Baseline was assigned the value of zero @ Week 0)” value ([3]; 0.3 mg daily dose, Week 18) was −0.0245 and the “Cognition Composite Score (Baseline was assigned the value of zero @ Week 0)” value ([3]; 0.3 mg daily dose, Week 23) was −0.0451. The “Cognition Composite Score (Baseline was assigned the value of zero @ Week 0)” value ([3]; 1 mg daily dose, Week 4) was 0.0042, the “Cognition Composite Score (Baseline was assigned the value of zero @ Week 0)” value ([3]; 1 mg daily dose, Week 12) was 0.0804 and the “Cognition Composite Score (Baseline was assigned the value of zero @ Week 0)” value ([3]; 1 mg daily dose, Week 18) was −0.0102. For the same compound, the “Cognition Composite Score (Baseline was assigned the value of zero @ Week 0)” value ([3]; 1 mg daily dose, Week 23) was 0.0287, the “Cognition Composite Score (Baseline was assigned the value of zero @ Week 0)” value ([3]; 2 mg daily dose, Week 4) was −0.0084 and the “Cognition Composite Score (Baseline was assigned the value of zero @ Week 0)” value ([3]; 2 mg daily dose, Week 12) was 0.0513. The “Cognition Composite Score (Baseline was assigned the value of zero @ Week 0)” value ([3]; 2 mg daily dose, Week 18) was 0.0915, the “Cognition Composite Score (Baseline was assigned the value of zero @ Week 0)” value ([3]; 2 mg daily dose, Week 23) was 0.1276 and the “Cognition composite score Effect Size” value ([3]; 2 mg versus placebo, over a 23 week period) was 0.42.
